What was measured:
Assay type in all cases: ADME
Cytochrome P450 3A5 = Cytochrome P450 3A5 (Homo sapiens, UniProt P20815); assay: Mechanism based inhibition of human cytochrome P450 3A5
CYP1A2 = biological target: T1, CYP1A2 (Homo sapiens, UniProt P05177); assay: (§1) Mechanism based inhibition of human cytochrome P450 1A2 measured by phenacetin O-deethylation (POD); details: human, probe phenacetin (O-deethylation, POD)
T1 sequence (P05177 whole entry): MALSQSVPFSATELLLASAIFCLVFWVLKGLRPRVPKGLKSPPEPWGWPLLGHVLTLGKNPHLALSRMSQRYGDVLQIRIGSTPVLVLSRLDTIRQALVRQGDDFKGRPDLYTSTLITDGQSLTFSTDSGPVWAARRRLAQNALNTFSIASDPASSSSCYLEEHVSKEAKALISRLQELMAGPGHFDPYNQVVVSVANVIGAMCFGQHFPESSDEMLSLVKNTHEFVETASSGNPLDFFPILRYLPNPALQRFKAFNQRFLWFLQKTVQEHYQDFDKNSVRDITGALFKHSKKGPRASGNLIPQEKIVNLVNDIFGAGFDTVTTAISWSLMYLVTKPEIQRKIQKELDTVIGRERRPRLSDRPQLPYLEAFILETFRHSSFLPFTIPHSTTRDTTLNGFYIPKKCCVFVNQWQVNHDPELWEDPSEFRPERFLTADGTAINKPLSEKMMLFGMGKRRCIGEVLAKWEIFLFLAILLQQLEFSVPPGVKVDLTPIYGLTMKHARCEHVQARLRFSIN

Cytochrome P450 1A2 [1] = biological target: T2, Cytochrome P450 1A2 (Homo sapiens, UniProt P05177); assay: as §1
T2 sequence (P05177 whole entry): T1 sequence (P05177 whole entry)

Cytochrome P450 2C9 = Cytochrome P450 2C9 (Homo sapiens, UniProt P11712); assay: Mechanism based inhibition of human cytochrome P450 2C9 measured by diclofenac 4-hydroxylation
Cytochrome P450 3A4 [2] = biological target: T3, Cytochrome P450 3A4 (Homo sapiens, UniProt P08684); assay: Mechanism based inhibition of human cytochrome P450 3A4 measured by testosterone 6-beta hydroxylation
Cytochrome P450 1A1 = biological target: T4, Cytochrome P450 1A1 (Homo sapiens, UniProt P04798); assay: Mechanism based inhibition of human cytochrome P450 1A1 measured by 7-ethoxyresorufin O-deethylation (EROD)
T4 sequence (P04798 whole entry): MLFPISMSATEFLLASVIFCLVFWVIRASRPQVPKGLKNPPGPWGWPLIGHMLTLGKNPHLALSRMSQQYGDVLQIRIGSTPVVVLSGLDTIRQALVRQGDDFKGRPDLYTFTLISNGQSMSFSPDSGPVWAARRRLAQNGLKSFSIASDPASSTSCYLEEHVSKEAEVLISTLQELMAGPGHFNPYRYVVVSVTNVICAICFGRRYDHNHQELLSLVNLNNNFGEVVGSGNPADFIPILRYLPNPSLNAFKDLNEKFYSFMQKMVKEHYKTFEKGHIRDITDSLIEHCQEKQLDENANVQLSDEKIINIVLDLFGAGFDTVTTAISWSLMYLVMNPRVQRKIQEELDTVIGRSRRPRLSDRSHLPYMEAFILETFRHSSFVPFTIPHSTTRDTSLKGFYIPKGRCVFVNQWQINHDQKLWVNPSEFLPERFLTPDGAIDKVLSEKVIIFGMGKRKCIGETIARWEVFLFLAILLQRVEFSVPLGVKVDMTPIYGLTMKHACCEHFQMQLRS

Cytochrome P450 1A2 [3] = biological target: T2, Cytochrome P450 1A2; assay: Mechanism based inhibition of human cytochrome P450 1A2 measured by 7-ethoxyresorufin O-deethylation (EROD)
Cytochrome P450 1B1 = biological target: T5, Cytochrome P450 1B1 (Homo sapiens, UniProt Q16678); assay: Mechanism based inhibition of human cytochrome P450 1B1 measured by 7-ethoxyresorufin O-deethylation (EROD)
T5 sequence (Q16678 whole entry): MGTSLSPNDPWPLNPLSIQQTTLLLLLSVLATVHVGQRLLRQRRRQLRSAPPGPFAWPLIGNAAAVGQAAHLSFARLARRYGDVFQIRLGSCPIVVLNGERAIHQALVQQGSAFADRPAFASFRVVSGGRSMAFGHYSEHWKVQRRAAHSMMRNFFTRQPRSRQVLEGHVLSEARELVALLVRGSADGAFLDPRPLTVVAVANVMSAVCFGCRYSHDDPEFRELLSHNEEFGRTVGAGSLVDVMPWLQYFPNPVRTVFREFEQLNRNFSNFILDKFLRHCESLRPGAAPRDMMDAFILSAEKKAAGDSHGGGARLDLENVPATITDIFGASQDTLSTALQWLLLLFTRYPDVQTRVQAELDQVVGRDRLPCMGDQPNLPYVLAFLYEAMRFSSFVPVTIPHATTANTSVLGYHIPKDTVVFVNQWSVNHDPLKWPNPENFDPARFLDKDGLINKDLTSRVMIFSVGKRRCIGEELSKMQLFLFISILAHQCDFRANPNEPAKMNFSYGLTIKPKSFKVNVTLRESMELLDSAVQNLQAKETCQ

CYP2B1 = biological target: T6, CYP2B1 (Rattus norvegicus, UniProt P00176); assay: (§2) Mechanism based inhibition of rat cytochrome P450 CYP2B1 measured by 7-EFC O-deethylation activity; details: rat, probe 7-EFC (O-deethylation)
T6 sequence (P00176 whole entry): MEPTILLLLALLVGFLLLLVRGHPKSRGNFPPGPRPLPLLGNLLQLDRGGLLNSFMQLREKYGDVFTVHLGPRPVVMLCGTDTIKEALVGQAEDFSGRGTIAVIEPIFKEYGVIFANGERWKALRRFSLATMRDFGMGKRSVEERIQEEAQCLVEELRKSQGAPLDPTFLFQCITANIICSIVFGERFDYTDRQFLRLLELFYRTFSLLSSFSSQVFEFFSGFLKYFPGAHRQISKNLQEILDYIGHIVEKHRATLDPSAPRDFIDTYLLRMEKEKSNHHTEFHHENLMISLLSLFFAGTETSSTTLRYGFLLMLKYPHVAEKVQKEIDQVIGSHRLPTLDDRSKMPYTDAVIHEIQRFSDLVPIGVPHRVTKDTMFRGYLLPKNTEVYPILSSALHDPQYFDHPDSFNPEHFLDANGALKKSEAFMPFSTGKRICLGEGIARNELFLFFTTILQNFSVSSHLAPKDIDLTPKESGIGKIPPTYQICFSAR

Cytochrome P450 2B1 [4] = biological target: T7, Cytochrome P450 2B1 (Rattus norvegicus, UniProt P00176); assay: as §2
T7 sequence (P00176 whole entry): T6 sequence (P00176 whole entry)

Cytochrome P450 2B1 [5] = biological target: T7, Cytochrome P450 2B1; assay: Mechanism based inhibition of rat cytochrome P450 CYP2B1; details: rat
Cytochrome P450 3A4 [6] = biological target: T3, Cytochrome P450 3A4; assay: Mechanism based inhibition of human cytochrome P450 3A4, partition ratio

T3 sequence (P08684 whole entry): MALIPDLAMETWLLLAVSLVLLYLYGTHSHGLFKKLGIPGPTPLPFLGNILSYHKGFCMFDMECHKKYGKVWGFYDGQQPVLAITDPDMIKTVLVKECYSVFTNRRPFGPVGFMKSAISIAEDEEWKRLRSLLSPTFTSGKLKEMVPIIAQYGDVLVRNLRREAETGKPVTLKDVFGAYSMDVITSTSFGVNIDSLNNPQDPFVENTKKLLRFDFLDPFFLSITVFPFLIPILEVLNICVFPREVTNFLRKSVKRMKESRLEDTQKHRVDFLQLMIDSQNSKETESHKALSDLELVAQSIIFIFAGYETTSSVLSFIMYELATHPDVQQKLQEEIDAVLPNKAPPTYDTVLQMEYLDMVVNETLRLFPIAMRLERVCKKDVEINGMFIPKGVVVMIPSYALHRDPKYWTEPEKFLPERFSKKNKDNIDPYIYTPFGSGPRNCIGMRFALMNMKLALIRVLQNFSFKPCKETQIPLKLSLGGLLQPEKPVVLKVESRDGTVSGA
Sequence of Cytochrome P450 3A5 (P20815 whole entry): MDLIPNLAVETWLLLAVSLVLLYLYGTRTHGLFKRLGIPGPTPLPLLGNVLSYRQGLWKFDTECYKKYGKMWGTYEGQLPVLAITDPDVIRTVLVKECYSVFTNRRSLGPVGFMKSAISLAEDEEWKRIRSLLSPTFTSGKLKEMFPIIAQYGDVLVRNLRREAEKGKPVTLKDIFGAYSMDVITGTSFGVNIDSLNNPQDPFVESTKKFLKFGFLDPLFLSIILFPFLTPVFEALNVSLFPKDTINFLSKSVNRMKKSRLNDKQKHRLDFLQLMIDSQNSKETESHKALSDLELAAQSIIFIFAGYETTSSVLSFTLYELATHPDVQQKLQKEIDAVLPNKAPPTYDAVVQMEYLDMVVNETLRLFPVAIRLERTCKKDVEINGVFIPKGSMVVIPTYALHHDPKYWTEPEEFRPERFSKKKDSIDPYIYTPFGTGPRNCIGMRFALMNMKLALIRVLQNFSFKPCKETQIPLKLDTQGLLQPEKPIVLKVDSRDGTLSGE
Sequence of Cytochrome P450 2C9 (P11712 whole entry): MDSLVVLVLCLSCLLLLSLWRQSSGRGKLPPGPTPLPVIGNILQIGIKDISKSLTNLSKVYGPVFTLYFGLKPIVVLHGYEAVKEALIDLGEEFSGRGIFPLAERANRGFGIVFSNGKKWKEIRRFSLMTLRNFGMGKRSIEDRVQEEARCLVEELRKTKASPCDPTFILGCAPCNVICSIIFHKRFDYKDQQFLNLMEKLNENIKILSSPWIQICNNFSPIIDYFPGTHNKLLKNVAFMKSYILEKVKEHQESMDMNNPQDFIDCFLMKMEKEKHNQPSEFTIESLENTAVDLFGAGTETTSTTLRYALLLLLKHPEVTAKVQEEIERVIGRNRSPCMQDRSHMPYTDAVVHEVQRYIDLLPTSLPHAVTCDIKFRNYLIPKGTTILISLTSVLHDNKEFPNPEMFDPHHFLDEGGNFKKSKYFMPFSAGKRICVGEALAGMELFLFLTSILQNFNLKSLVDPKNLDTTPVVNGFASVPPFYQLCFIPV

Question: With `CC(C)(C)NC(=O)[C@@H]1C[C@@H]2CCCC[C@@H]2CN1C[C@@H](O)[C@H](Cc1ccccc1)NC(=O)[C@H](CC(N)=O)NC(=O)c1ccc2ccccc2n1` as the compound, how does the mechanism based inhibition (Cytochrome P450 3A5) read?
Answer: The mechanism based inhibition was “Cytochrome P450 mechanistic inhibitor: PMID 15523003”.

Question: How did the kinact (CYP1A2) turn out when `C[C@@H](c1cc2ccccc2s1)N(O)C(N)=O` was run?
Answer: The kinact was 0.000617 s⁻¹.

Question: What about the Ki (Cytochrome P450 1A2 [1]) of the same compound?
Answer: Its Ki is 98.2 µM.

Question: With `C[C@H](c1cc2ccccc2s1)N(O)C(N)=O` as the compound, how does the kinact (CYP1A2) read?
Answer: Its kinact is 0.0002 s⁻¹.

Question: And the Ki (Cytochrome P450 1A2 [1])?
Answer: Its Ki is 66 µM.

Question: With `CCOC(=O)C1=C(C)N=C(C)/C(=C(/O)OCC)C1CC` (stereo not drawn) as the compound, how does the mechanism based inhibition (Cytochrome P450 2C9) read?
Answer: The mechanism based inhibition was “Cytochrome P450 mechanistic inhibitor: PMID 9107543”.

Question: What about the mechanism based inhibition (Cytochrome P450 3A4 [2]) of the same compound?
Answer: Its mechanism based inhibition is “Cytochrome P450 mechanistic inhibitor: PMID 9107543”.

Question: What about the mechanism based inhibition (Cytochrome P450 1A1) of the same compound?
Answer: The mechanism based inhibition was “Cytochrome P450 mechanistic inhibitor: PMID 9107543”.

Question: And the mechanism based inhibition (Cytochrome P450 1A2 [3])?
Answer: Its mechanism based inhibition is “Cytochrome P450 mechanistic inhibitor: PMID 9107543”.

Question: How did the mechanism based inhibition (Cytochrome P450 1A1) turn out when `C#Cc1cc2ccc3cccc4ccc(c1)c2c34` was run?
Answer: The mechanism based inhibition was “Cytochrome P450 mechanistic inhibitor: PMID 9760279”.

Question: What about the mechanism based inhibition (Cytochrome P450 1B1) of the same compound?
Answer: Its mechanism based inhibition is “Cytochrome P450 mechanistic inhibitor: PMID 9760279”.

Question: `CC(C)(C)NC(=O)[C@@H]1CN(Cc2cccnc2)CCN1C[C@@H](O)C[C@@H](Cc1ccccc1)C(=O)N[C@H]1c2ccccc2C[C@H]1O.O` was tested. Which mechanism based inhibition (Cytochrome P450 3A5) did it give?
Answer: The mechanism based inhibition was “Cytochrome P450 mechanistic inhibitor: PMID 15523003”.

Question: How did the kinact (CYP1A2) turn out when `CC(c1cc2ccccc2s1)N(O)C(N)=O` (racemic) [ZILEUTON] was run?
Answer: The kinact was 0.000583 s⁻¹.

Question: And the Ki (Cytochrome P450 1A2 [1])?
Answer: Its Ki is 117 µM.

Question: Which kinact (CYP2B1) does the source give for `C#CCN(C)CCCOc1ccc(Cl)cc1Cl` [CLORGILINE] here?
Answer: The kinact was 0.00467 s⁻¹.

Question: What about the Ki (Cytochrome P450 2B1 [4]) of the same compound?
Answer: The Ki was 1.5 µM.

Question: For `CC(C)(OO)c1ccccc1` [CUMENE HYDROPEROXIDE], which mechanism based inhibition (Cytochrome P450 2B1 [5]) is on record?
Answer: The mechanism based inhibition was “Cytochrome P450 mechanistic inhibitor: PMID 8416964”.

Question: How did the Partition ratio (Cytochrome P450 3A4 [6]) turn out when `CC(C)Nc1cccnc1N1CCN(C(=O)c2cc3cc(NS(C)(=O)=O)ccc3[nH]2)CC1` [DELAVIRDINE] was run?
Answer: The Partition ratio was 41.

Reference: ChEMBL document CHEMBL1743341, “Cytochrome p450 enzymes mechanism based inhibitors: common sub-structures and reactivity” (Curr Drug Metab, 2005)
